Measured values from patent US10730886B2, “Compound having effect of inhibiting platelet aggregation and salt thereof, and composition for preventing or treating thrombotic diseases, containing same” (SHIN POONG PHARMACEUTICAL CO., LTD., priority 2015, dated 2020).

Experiments:
[1] = test system: Human Washed Platelets (WP); test: Shear stress-induced platelet aggregation inhibition in human washed platelets (WP); format: cell-based; settings: for inhibited shear stress-induced platelet aggregation in WP: 10, 25, 50 μM; for inhibition at 10 µM / inhibition at 25 µM / inhibition at 50 µM: Platelet, human WP, read-out: Degree of inhibition (%, Mean ± SEM)
Protocol: 1-2. Measurement of Platelet Aggregation Inhibitory Effect Using Human Washed Platelets (WP)
To separate human washed platelets (WP), blood was collected from the veins of healthy males using acid-citrate-dextrose (ACD) as an anticoagulant. At the time of blood collection, platelet activation was inhibited by treatment with 1 μM of prostaglandin E1 (PGE1). The collected blood was centrifuged at 150 g for 15 minutes to obtain PRP from the supernatant, which was centrifuged at 500 g for 10 minutes to obtain platelets. The platelets were suspended in and washed with a washing buffer (134 mM NaCl, 2.9 mM KCl, 1.0 mM MgCl2.6H2O, 10.0 mM HEPES, 5.0 mM dextrose, 12.0 mM NaHCO3, 0.34 mM Na2HPO4, 10% ACD, 0.3% bovine serum albumin, 1 μM PGE1, pH 7.4), and then re-centrifuged at 400 g for 10 minutes. The platelets thus obtained were suspended in the suspension buffer. The number of platelets in WP were counted using a hemacytometer. The platelets were diluted with the suspension buffer so as to include 3×10^8 platelets per 1 ml, and CaCl2 was added to give a final concentration of 2 mM and then used in the experiments. vWF was added to WP to give a final concentration of 10 μg/ml. WP was put on a cone-plate viscometer, and shear stress was applied to the WP at 37° C. for 3 minutes at a shear rate of 10,800 s^−1. In order to evaluate efficacy of candidate substances, prior to the induction of platelet aggregation, WP was treated with 10, 25, and 50 μM of candidate substances and incubated at 37° C. for 3 minutes using a thermomixer. After applying the shear stress, 20 μl of WP was fixed in 280 μl of the suspension buffer containing 0.5% glutaraldehyde. Then, the number of single platelets in the suspension was counted using a hemacytometer. The degree of inhibition by the candidate substance was calculated according to formula (1). No shear stress-applied group served as control, and only shear stress-applied group served as a positive control.

[2] = test system: thrombin-induced platelet aggregation, Human PRP; test: Thrombin-induced platelet aggregation in human PRP (lumi-aggregometer); format: cell-based; settings: thrombin 0.6-0.8 U/ml;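 note: aggregation recorded for 5 min after thrombin addition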
Protocol: To investigate whether the candidate substance has inhibition selectivity for shear-stress-induced platelet aggregation, which is by a physical stimulus, […] experiment was conducted by activating platelets with physiological agonists—i.e., thrombin, collagen and ADP—to study the inhibitory effect of the candidate substance.
Human PRP (598.8 μl) was treated with 1.2 μl of the candidate substance per concentration (25, 100, 250 μM) and reacted at 37° C. for 3 minutes using a thermomixer. Then, PRP (495 μl) was put in the aggregometer cuvette and preincubated for 1 minute, followed by treatment with platelet aggregation-inducing reagent, thrombin (0.6-0.8 U/ml), collagen (2-5 μg/ml), or ADP (adenosine diphosphate, 15-20 μM) at the minimum concentration causing maximum aggregation. The degree of aggregation of the platelets was measured by a turbidity change using a lumi-aggregometer (Chrono-Log Co., USA). The turbidity of the PRP was considered as 0%, and the turbidity of the PPP was considered as 100%. During the measurement, the reaction mixture was continuously stirred at 1,000 rpm with a silicone-coated magnetic stir bar.

[3] = test system: iron chloride (FeCl3)-induced thrombogenesis model; test: Arterial thrombosis model, FeCl3-induced carotid artery thrombogenesis; format: in vivo, Sprague-Dawley rats; settings: rat, 25 mg/kg oral; for Time of thrombogenesis: FeCl3 applied 60 min after administration, occlusion time; for Fold (vs. Control): time of thrombogenesis vs. vehicle control
Protocol: Vehicle (DMSO: Tween 80: DW=1:2:17) or candidate substance (25 mg/kg) was orally administered to overnight-fasted male Sprague-Dawley rats (250 to 300 g). 30 minutes after administration, the rats were anesthetized by intraperitoneal injection of urethane (1.25 g/kg). The anesthetized animals were restrained on the operating table, and the body temperature was maintained using a heating pad during the entire operating procedure. An incision was made around the neck of the animals to carefully expose the right carotid artery, and the adipose tissues attached to the blood vessels were carefully removed. Doppler flow probe (0.5 mm-diameter, MA0.5PSB, Transonic System Inc., USA) was fixed to the exposed carotid artery, and a doppler flow-meter (TS420, Transonic System Inc., USA) was connected thereto. 60 minutes after oral administration, a piece of Whatman No. 1 filter paper (2 mm×1 mm) soaked with 50% FeCl3 solution was attached to the underlying blood vessels to which the probe was fixed. The filter paper was removed after 10 minutes, and the change of blood flow due to thrombus formation in the carotid artery was measured for 60 minutes after the time point of removal. The occlusion time was defined as the time at which the blood flow became zero more than one minute for the first time.

Structure (SMILES)	inhibited shear stress-induced platelet aggregation in WP [1]	inhibition at 10 µM [1]	inhibition at 25 µM [1]	inhibition at 50 µM [1]	Degree of platelet aggregation (%, Mean ± SEM) ([2]; 25 μM)	Degree of platelet aggregation (%, Mean ± SEM) ([2]; 100 μM)	Degree of platelet aggregation (%, Mean ± SEM) ([2]; 250 μM)	Time of thrombogenesis [3]	Fold (vs. Control) [3]
O=C(c1ccc(O)c(O)c1)N1CCc2sccc2C1 [Example 1, (6,7-Dihydrothieno[3,2-c]pyridin-5(4H)-yl)(3,4-dihydroxyphenyl)methanone]	in a dose-dependent manner	4 ± 3.5%	23 ± 1.2%	27 ± 1.7%	88.0 ± 2.1%	88.7 ± 6.1%	78.7 ± 1.8%	936 ± 120 s	
COc1cc(C(=O)N2CCc3sccc3C2)ccc1O [Example 12, (6,7-Dihydrothieno[3,2-c]pyridin-5(4H)-yl)(4-hydroxy-3-methoxyphenyl)methanone]	in a dose-dependent manner	10 ± 2.1%	30 ± 0.9%	33 ± 2.1%	99.5 ± 7.5%	95.0 ± 12.0%	88.5 ± 4.5%	665 ± 77 s	1.9
CCc1occc(=O)c1OC(=O)c1ccc(O)c(OC)c1 [Example 13, 2-Ethyl-4-oxo-4H-pyran-3-yl 4-hydroxy-3-methoxybenzoate]	in a dose-dependent manner	12 ± 3.8%	29 ± 4.1%	34 ± 2.7%	92.5 ± 5.5%	95.0 ± 12.0%	88.5 ± 4.5%	752 ± 69 s	2.1
COc1cc(C(=O)Oc2c(C)occc2=O)ccc1O [Example 14, 2-Methyl-4-oxo-4H-pyran-3-yl 4-hydroxy-3-methoxybenzoate]	in a dose-dependent manner	8 ± 1.5%	27 ± 2.3%	39 ± 0.6%	81.3 ± 2.5%	84.0 ± 0.6%	86.0 ± 4.6%	615 ± 54 s	1.7
COc1ccc(NC(=O)c2ccc(O)c(OC)c2)c([N+](=O)[O-])c1 [Example 15, 4-Hydroxy-3-methoxy-N-(4-methoxy-2-nitrophenyl)benzamide]	in a dose-dependent manner	14 ± 2.5%	26 ± 4%	36 ± 3.2%	95.5 ± 3.5%	100.5 ± 4.5%	98.0 ± 3.0%	816 ± 78 s	2.3
O=C(c1cc(O)ccc1O)N1CCc2sccc2C1 [Example 20, (6,7-Dihydrothieno[3,2-c]pyridin-5(4H)-yl)(2,5-dihydroxyphenyl)methanone]	in a dose-dependent manner	18 ± 1.5%	42 ± 4.2%	46 ± 2.1%	84.0 ± 3.2%	82.3 ± 3.7%	82.0 ± 15.0%	2122 ± 265 s	
O=C(c1cc(O)ccc1O)N1CCC(c2noc3ccc(F)cc23)CC1 [Example 23, (2,5-Dihydroxyphenyl)(4-(5-fluorobenzo[d]isoxazol-3-yl)piperidin-1-yl)methanone]					96.0 ± 4.0%	88.5 ± 6.5%	93.5 ± 1.5%	674 ± 92 s	1.9
